What was measured:
[1] = Blood brain barrier crossing
Excerpt: NCOMMS-16-23550_Point by Point Responses Papathanassiu et al.
6. It would be interesting to know why the half -life in animals is very low. Again, is the drug metabolized by the organism? (see also point 3).
Authors’ reply. The pharmacokinetic study that determined the half -life of the drug in mice […]
ERG240 is completely absorbed and not subject to first -pass metabolism. Since the drug is structurally a leucine analogue, it is likely to be uptaken by the ubiquitously expressed amino acid transporter LAT1. In that light, the low half -life of the drug is related to its complete and swift absorption by various sites rather to a phase I or II metabolic reaction. ERG240 is also […]
preferentially in the brain. […]
metabolism of the drug in human macrophages, please see the response to point 3, which […]
7. Leucine is degraded to acetyl -Coa and acetoacetate both fueling cellular acetyl -Coa pools. Does decreased activity of BCAT1 impact cellular acetyl -Coa and citrate levels? Itaconate synthesis is a sink for citrate and diverts carbon away from the TCA cycle. […]
have measured citrate levels in 4 donors following LPS and LPS + ERG240 treatment for 3 hours by GC-MS. […]
Itaconate levels measured by GC/MS were further confirmed in si-BCAT1 and si-Control MDMs from independent donors (n=4, left panel). […]

[2] = Dose-escalating toxicity study; format: in vivo; details: oral or intraperitoneal administration, doses up to 2 g kg^−1
Water solubility = format: physicochemical
[3] = tested on: nephrotoxic nephritis (NTN) model; experiment: Nephrotoxic nephritis (NTN, crescentic glomerulonephritis) in the WKY rat; format: in vivo, Wistar-Kyoto (WKY) rat
Excerpt: Figure 5 Orally administrated ERG240 reduced the severity of crescentic glomerulonephritis in rats and CIA in mice. (a) Glomerular crescents, serum creatinine, and proteinuria levels measured in vehicle and ERG240 treated rats at day 10 following induction of nephrotoxic nephritis. At least n=4 rats were used in each group. (b) Col1a1 immunofluorescence (IF) quantification (left panel), representative IF and Sirius red staining images (middle panel) and Col1a1 qRT-PCR (normalized to Hprt) 28 days following NTS injection. Original magnification, × 20, at least n=4 animals were used in each group. (c) Clinical progression of CIA measured by the Mean Arthritis Index in vehicle and ERG240-treated animals in both studies (prophylactic and therapeutic, upper panel; at least n=6 animals per group). Histological analysis of joints from representative whole paws scored for inflammation, pannus formation, cartilage damage and bone resorption (lower panel). Error bars are s.e.m. Either Mann–Whitney or Student’s t-test were used for significance. *** P<0.001, ** P<0.01, * P<0.05. Scale bars, 50 μm.
Nephrotoxic nephritis (NTN) was induced in twelve week old male Wistar-Kyoto (WKY) rats by intravenous injection of 0.1 ml of nephrotoxic serum (NTS), as previously described. Five WKY rats received ERG240 (250 mg kg^−1) orally in 0.1% carboxymethylcellulose once a day for a duration of 10 days whereas the vehicle treated WKY rats had carboxymethylcellulose only for the same period. Nine days following NTS injection, urine was collected by placing rats in metabolic cages for 24 h with free access to food and water. Proteinuria was determined by the sulphosalicylic acid test and serum creatinine by the Creatinine Assay Kit (Abcam). After 10 or 28 days of NTN induction, rats were culled and the kidney was formalin fixed and paraffin embedded for immunohistochemistry. To quantify the number of macrophages infiltrating the glomeruli, formalin-fixed paraffin-embedded kidney sections were stained with mouse monoclonal antibody to ED-1 (Serotec, Oxford, UK), followed by an HRP-labelled anti-mouse polymer development system (Dako Ltd, UK). For the evaluation of total collagen, renal tissues were stained with Sirius red. For Col1a1 immunofluorescence, sections were blocked with BSA, incubated with the Col1a1 primary antibody raised in goat (Southern Biotech, 1/40 dilution), washed and re-incubated with secondary antibody (donkey anti-goat-FITC, 1/100 dilution, Abcam). For ED-1 staining, the cellular infiltrates in 20 consecutive glomeruli were quantified using an automated image analysis software (ImagePro Plus, Media Cybernetics, Bethesda, MD) and expressed as a percentage of total glomerular cross sectional area.

[4] = 250 mg kg^−1 orally once a day, 10 days, day 10

## CC(=O)C(C)CCC(=O)O (stereo not drawn) [ERG240]
[1]
  accumulation in the brain: does not accumulate
  crossing of the blood brain barrier: capable of crossing the blood brain barrier
[2]
  adverse effects in dose-escalating toxicity study: no major adverse effects
Water solubility
  water solubility: water-soluble
[3]; [4]
  glomerular crescent formation: significantly reduced
  proteinuria: significantly reduced
  serum creatinine: significantly reduced
[3]; NTN model
  interstitial fibrosis: reduced interstitial fibrosis
[3]; day 28
  Col1a1 mRNA levels in the renal cortex: reduced
  Sirius red staining: reduced Sirius red staining
  collagen type I alpha I quantitative immunofluorescence in nephritic kidneys: significant down-regulation
[3]; rat, in vivo
  glomerular infiltration of CD68 (ED1)-positive cells: significantly decreased
